Data on 9 compounds can be found in PubChem BioAssay (NCI).

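Five concentrations, 48 hours, 96-well plates. The concentration for 50% growth inhibition is given as GI50. TGI is the concentration that stops growth completely.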 Some results are limits rather than exact numbers.

Among the test systems are HOP-92 NSCLC; HS 578T breast; K-562 leukemia; MOLT-4 leukemia; NCI-H226 lung; SF-539 CNS; SK-MEL-28 melanoma; SN12C renal; SNB-75 CNS; UACC-257 melanoma.
Holding throughout (assay): inhibition of tumour cell growth, NCI panel, 48 h

For the compound `N=C(N)c1nn(C2OC(CO)C(O)C2O)c2nc[nH]c(=O)c12` (centres undefined), the GI50 in the assay on HOP-92 NSCLC is 1.29 µM; with HS 578T breast, 0.376 µM; in the assay on K-562 leukemia, 0.367 µM; in the assay with MOLT-4 leukemia, 0.491 µM; in the assay on NCI-H226 lung, 0.611 µM; in the assay on SF-539 CNS it was 0.367 µM. Moreover, the GI50 is 0.336 µM in the assay on SK-MEL-28 melanoma, 0.315 µM in the assay on SN12C renal, 1.48 µM in the assay on SNB-75 CNS and 0.292 µM with UACC-257 melanoma. The TGI with HOP-92 NSCLC was 5.93 µM; in the assay on HS 578T breast it was 2.27 µM; with K-562 leukemia, 3.63 µM; in the assay on MOLT-4 leukemia, 4.12 µM; in the assay on NCI-H226 lung, 3.74 µM; in the assay with SF-539 CNS, 1.75 µM. For the same compound, the TGI turned out to be 1.55 µM in the assay with SK-MEL-28 melanoma, 2.37 µM with SN12C renal, 7.27 µM in the assay on SNB-75 CNS and 1.29 µM in the assay on UACC-257 melanoma.

With `CN(C)CCCNC(=O)c1cc(NC(=O)CCNS(=O)(=O)c2ccc3c(c2)C(=O)c2ccccc2C3=O)cn1C`, the GI50 in the assay on HOP-92 NSCLC is 88.9 µM; in the assay on HS 578T breast, above 100 µM; with K-562 leukemia, above 100 µM; in the assay with MOLT-4 leukemia, above 100 µM; in the assay with NCI-H226 lung, above 100 µM; with SF-539 CNS, above 100 µM. Also, the GI50 with SN12C renal was above 100 µM; with UACC-257 melanoma, 54.4 µM. For the same compound, the TGI in the assay with HOP-92 NSCLC, with HS 578T breast, in the assay with K-562 leukemia, in the assay with MOLT-4 leukemia, in the assay with NCI-H226 lung and in the assay on SF-539 CNS was above 100 µM in each case. In addition, the TGI in the assay with SN12C renal and in the assay on UACC-257 melanoma was above 100 µM throughout.

On to `CC1(C)CCC2(C(=O)OC3OC(CO)C(O)C(O)C3O)CC[C@]3(C)C(=CCC4C5(C)CC[C@H](OC6OC(C(=O)O)C(O)C(O)C6O)C(C)(C)C5CCC43C)C2C1` (some centres undefined), for which the GI50 in the assay with HOP-92 NSCLC is 1.04 µM; in the assay on HS 578T breast it was 1.62 µM; in the assay on K-562 leukemia, 1.58 µM; in the assay on MOLT-4 leukemia, 0.997 µM; in the assay with NCI-H226 lung, 1.49 µM; in the assay on SK-MEL-28 melanoma, 2.6 µM. Besides, the values for the GI50 with SN12C renal and in the assay on UACC-257 melanoma were 1.39 µM and 4.18 µM, respectively. Moreover, the TGI in the assay with HOP-92 NSCLC was 2.98 µM; in the assay on HS 578T breast, 4.51 µM; in the assay on K-562 leukemia it was above 50 µM; with MOLT-4 leukemia, 2.84 µM; in the assay on NCI-H226 lung, 6.31 µM; in the assay on SK-MEL-28 melanoma it was 12.2 µM. In addition, the results for the TGI in the assay on SN12C renal and with UACC-257 melanoma were 3.55 µM and 15.4 µM, respectively.

In the case of `COc1ccc2c(c1)CCC1C2CCC2(C)C1CCC2(O)CNC(=O)CCCCC1CCSS1` (centres undefined), the GI50 was 4.9 µM in the assay on HOP-92 NSCLC; 13.9 µM in the assay with HS 578T breast; 2.63 µM with K-562 leukemia; 1.66 µM in the assay with MOLT-4 leukemia; 13.3 µM with NCI-H226 lung; 18.3 µM with SF-539 CNS. Also, the GI50 in the assay with SK-MEL-28 melanoma was 64.9 µM; with SN12C renal it was 16.6 µM; in the assay with UACC-257 melanoma, 31.9 µM. Besides, the TGI was 23 µM in the assay on HOP-92 NSCLC; above 100 µM with HS 578T breast; above 100 µM in the assay with K-562 leukemia; above 100 µM in the assay on MOLT-4 leukemia; above 100 µM in the assay on NCI-H226 lung; 90.8 µM with SF-539 CNS. Moreover, the TGI with SK-MEL-28 melanoma, in the assay with SN12C renal and in the assay on UACC-257 melanoma was above 100 µM in each case.

Turning to `O=C1c2ccccc2C(=O)N1CC1(C(=O)O)NCCS1(=O)=O` (centres undefined), the TGI with HOP-92 NSCLC, with HS 578T breast, in the assay on K-562 leukemia, with MOLT-4 leukemia, with NCI-H226 lung and in the assay with SF-539 CNS was above 100 µM throughout. The TGI with SK-MEL-28 melanoma, with SN12C renal and with UACC-257 melanoma was above 100 µM each time.

Take `CC1=C(C(=O)OCc2ccccc2)C(c2ccc3c(c2)OCO3)n2c(nc3ccccc32)N1` (centres undefined): the GI50 with HOP-92 NSCLC was above 100 µM; with HS 578T breast it was 0.299 µM; with K-562 leukemia it was 0.276 µM; in the assay on MOLT-4 leukemia, 0.753 µM; in the assay with NCI-H226 lung, above 100 µM; in the assay with SF-539 CNS, 0.34 µM. For the same compound, the GI50 with SK-MEL-28 melanoma was above 100 µM; in the assay on SNB-75 CNS, 0.215 µM. Further, the TGI with HOP-92 NSCLC is above 100 µM; in the assay with HS 578T breast, above 48.8 µM; in the assay on K-562 leukemia, above 100 µM; with MOLT-4 leukemia, above 100 µM; with NCI-H226 lung it was above 100 µM; in the assay with SF-539 CNS, above 100 µM. The TGI with SK-MEL-28 melanoma is above 100 µM; in the assay on SNB-75 CNS, 0.801 µM; in the assay on UACC-257 melanoma, above 100 µM.

Regarding `COc1cccc(OC(=O)c2ccccc2Nc2ccnc(C(F)(F)F)c2)c1`, the GI50 in the assay with HOP-92 NSCLC is 5.77 µM; in the assay on HS 578T breast, 4.85 µM; in the assay with K-562 leukemia it was 0.739 µM; in the assay on MOLT-4 leukemia, 0.692 µM; in the assay with NCI-H226 lung, 8.09 µM; with SK-MEL-28 melanoma, 12.7 µM. Besides, the GI50 in the assay on SN12C renal is 5.33 µM; in the assay on UACC-257 melanoma, 5.37 µM. The TGI in the assay with HOP-92 NSCLC was 60.4 µM; in the assay on HS 578T breast, above 100 µM; in the assay with K-562 leukemia it was above 100 µM; in the assay with MOLT-4 leukemia, 4.29 µM; with NCI-H226 lung, 77.3 µM; in the assay on SK-MEL-28 melanoma, above 100 µM. The results for the TGI with SN12C renal and in the assay with UACC-257 melanoma were 41.2 µM and 32.4 µM, respectively.

Take `Nc1ncnc2c1ccn2C1OC2COP(=O)(O)OC2C1O` (centres undefined): the TGI is 7.41 µM in the assay with HOP-92 NSCLC; above 31 µM with HS 578T breast; 19 µM in the assay with K-562 leukemia; 10.9 µM in the assay with MOLT-4 leukemia; 28.5 µM in the assay with NCI-H226 lung; 20.2 µM with SF-539 CNS. The TGI with SK-MEL-28 melanoma was determined as 14.2 µM; in the assay with SN12C renal it was 12.7 µM; in the assay with UACC-257 melanoma it was 9.11 µM.

On to `COc1ccc(C(=O)/C=C/c2ccc(Cl)cc2)cc1S(=O)(=O)Nc1c(N)nc(SC)[nH]c1=O`, for which the GI50 in the assay on HOP-92 NSCLC is 2.59 µM; with HS 578T breast it was 3.56 µM; in the assay with K-562 leukemia it was 2.77 µM; in the assay on MOLT-4 leukemia it was 3.71 µM; in the assay on NCI-H226 lung, 2.34 µM; with SF-539 CNS it was 2.1 µM. In addition, the figures for the GI50 with SK-MEL-28 melanoma, with SN12C renal and in the assay on UACC-257 melanoma were 2.1 µM, 3.45 µM and 8.27 µM, respectively. Further, the TGI was 7.99 µM with HOP-92 NSCLC; 24.2 µM in the assay on HS 578T breast; above 100 µM in the assay with K-562 leukemia; 18.7 µM with MOLT-4 leukemia; 8.36 µM in the assay on NCI-H226 lung; 5 µM in the assay with SF-539 CNS. Further, the TGI was determined as 4.97 µM in the assay with SK-MEL-28 melanoma, 13.8 µM with SN12C renal and 21.4 µM with UACC-257 melanoma.
